Measurements taken from patent US4204065A, “Soft quaternary surface active agents and method of using same” (Interx Research Corporation, priority 1978, dated 1980).
Entries after “also recorded” stand apart in the source; their conditions may differ. Where two headings read alike, the source gives them in different places.

Assays:
[1] = system: mouse; details: cited from earlier work
[2] = system: mouse; details: cited from earlier work; remark: listed apart in the source
[3] = system: rat; details: cited from earlier work
[4] = system: S. aureus; assay: microbe, parasite or virus in culture; format: cell-based; details: Staphylococcus aureus, pH 7, read-out: Minimal inhibitory concentration (MIC), S. aureus
[5] = system: B. subtilis; assay: Minimal inhibitory concentration (MIC), B. subtilis; format: cell-based; details: Bacillus subtilis; 0.1 M NaH2PO4, pH 7.0
[6] = system: S. typhimirum; assay: Minimal inhibitory concentration (MIC), S. typhimirum; format: cell-based; details: 0.1 M NaH2PO4, pH 7.0
[7] = system: P. aeruginosa; assay: Minimal inhibitory concentration (MIC), P. aeruginosa; format: cell-based; details: Pseudomonas aeruginosa; 0.1 M NaH2PO4, pH 7.0
[8] = system: S. pyogenes; assay: Minimal inhibitory concentration (MIC), S. pyogenes; format: cell-based; details: Streptococcus pyogenes; 0.1 M NaH2PO4, pH 7.0
[9] = Saturated solubility (footnote of MIC table); format: physicochemical; details: 0.1 M NaH2PO4, pH 7.0; footnote b; read-out: Approximately the saturated solubility
Text: ^b Approximately the saturated solubility.

[10] = system: MCR-ICR White Swiss Male Mice; details: mouse; for Mortality 24 hrs. / Mortality 7 days: in vivo
[11] = system: White Male Mice MCR-ICR; details: oral; for Mortality 24 hrs. / Mortality 7 days: deaths of 10 animals per dose
[12] = in vivo; details: mouse, iv
[13] = in vivo; details: mouse, po

Q: For `CCCCCCCCCCCCCCCC[n+]1ccccc1` [Compound 1, cetylpyridinium chloride], which LD50 oral [1] is on record?
A: 108 mg/kg

Q: And the “LD50 IP” value [2]?
A: 10 mg/kg

Q: What about the “LD50 IV” value [3] of the same compound?
A: 30 mg/kg

Q: What does the source list for `CCCCCCCC(=O)OC[n+]1ccccc1` [Compound 2, n-Octanoyloxymethylpyridinium chloride]?
A: MIC [4]: 529 mg/L; MIC [5]: 529 mg/L; MIC [6]: 1060 mg/L; MIC [7]: 1060 mg/L; MIC [8]: 529 mg/L

Q: Which MIC [4] does the source give for `CCCCCCCCCCCC(=O)OC[n+]1ccccc1` [Compound 3, n-Dodecanoyloxymethylpyridinium chloride] here?
A: 8.9 mg/L

Q: What about the MIC [5] of the same compound?
A: 143 mg/L

Q: What about the MIC [6] of the same compound?
A: 35.8 mg/L

Q: And the MIC [7]?
A: < 2.2 mg/L

Q: What about the MIC [8] of the same compound?
A: 71.5 mg/L

Q: What does the source list for `CCCCCCCCCCCCCC(=O)OC[n+]1ccccc1` [Compound 4, n-Tetradecanoyloxymethylpyridinium chloride]?
A: MIC [4]: 8.1 mg/L; MIC [5]: 8.3 mg/L; MIC [6]: 133 mg/L; MIC [7]: > 1060 mg/L; MIC [8]: 4.2 mg/L

Q: For `CCCCCCCCCCCCCCCC(=O)OC[n+]1ccccc1` [Compound 5, n-Hexadecanoyloxymethylpyridinium chloride], which MIC [4] is on record?
A: 16.7 mg/L

Q: And the MIC [5]?
A: 1070 mg/L

Q: And the MIC [6]?
A: 1070 mg/L

Q: And the MIC [7]?
A: 1070 mg/L

Q: What about the MIC [8] of the same compound?
A: 268 mg/L

Q: Which MIC [4] does the source give for `CCCCCCCCCCCC(=O)OC[n+]1ccn(C)c1` [Compound 6] here?
A: 4.1 mg/L

Q: And the MIC [5]?
A: 16.3 mg/L

Q: What about the MIC [6] of the same compound?
A: 65.3 mg/L

Q: And the MIC [7]?
A: 261 mg/L

Q: What about the MIC [8] of the same compound?
A: 2 mg/L

Q: With `CCCCCCCCCCCCCC(=O)OC[n+]1ccn(C)c1` [Compound 7] as the compound, how does the MIC [4] read?
A: < 2.2 mg/L

Q: And the MIC [5]?
A: 4.4 mg/L

Q: What about the MIC [6] of the same compound?
A: 69.7 mg/L

Q: What about the MIC [7] of the same compound?
A: > 1120 mg/L

Q: And the MIC [8]?
A: > 2.2 mg/L

Q: Which MIC [4] does the source give for `CCCCCCCCCCCCCCCC(=O)OC[n+]1ccn(C)c1` [Compound 8] here?
A: 1.3 mg/L

Q: And the MIC [5]?
A: > 42.4 mg/L

Q: What about the MIC [6] of the same compound?
A: > 42.4 mg/L

Q: What about the MIC [7] of the same compound?
A: > 42.4 mg/L

Q: And the MIC [8]?
A: > 42.4 mg/L

Q: What about the solubility [9] of the same compound?
A: ~0.0424 mg/mL

Q: Which results are given for `CCCCCCCCCCCC(=O)OC[n+]1ccn(C)c1` [IRx-1229]?
A: Symptoms: time of death ([10]; IV): Death either occurred immediately after injection or several day later, never between 5 minutes and 24 hours after injection; Symptoms: cause and signs of immediate death ([10]; IV, death immediately following injection): circulatory collapse because of too large an injection or precipitation of the compound in the bloodstream; also recorded: death was preceded by convulsions; Mortality 24 hrs. ([10]; 133 mg/kg): 1/3; Mortality 7 days ([10]; 133 mg/kg): 1/3; Mortality 24 hrs. ([10]; iv, 35.09 mg/kg): 0/5; Mortality 7 days ([10]; iv, 35.09 mg/kg): 0/5; Mortality 24 hrs. ([10]; iv, 42.5 mg/kg): 0/5; Mortality 7 days ([10]; iv, 42.5 mg/kg): 0/5; Mortality 24 hrs. ([10]; iv, 81.25 mg/kg): 1/2; Mortality 7 days ([10]; iv, 81.25 mg/kg): 1/2; Mortality 24 hrs. ([10]; iv, 87.73 mg/kg): 2/4; Mortality 7 days ([10]; iv, 87.73 mg/kg): 2/4; Mortality 24 hrs. ([10]; iv, 102.47 mg/kg): 0/8; Mortality 7 days ([10]; iv, 102.47 mg/kg): 1/8; Mortality 24 hrs. ([10]; iv, 199.5 mg/kg): 1/1; Mortality 7 days ([10]; iv, 199.5 mg/kg): 1/1; Deaths per day, Day 1 ([11]; 1.68 g/kg): 0; Deaths per day, Day 2 ([11]; 1.68 g/kg): 1; Mortality 24 hrs. ([11]; 1.68 g/kg): 0; Mortality 7 days ([11]; 1.68 g/kg): 1; Deaths per day, Day 1 ([11]; 3.35 g/kg): 2; Deaths per day, Day 3 ([11]; 3.35 g/kg): 1; Mortality 24 hrs. ([11]; 3.35 g/kg): 2; Mortality 7 days ([11]; 3.35 g/kg): 3; Deaths per day, Day 1 ([11]; 5.00 g/kg): 7; Mortality 24 hrs. ([11]; 5.00 g/kg): 7; Mortality 7 days ([11]; 5.00 g/kg): 7; LD50 at 24 h [12]: 100 to 133 mg/kg; LD50 at 24 h [13]: 4300 mg/kg; LD50 at 168 h [13]: 4110 mg/kg
